Several values for one entry are separate records, joined by “and”; a condition that tells them apart may be missing. Identical values can stand only once.
biological target: T1, Murine PKD1 kinase domain (Mus musculus, UniProt Q62101); assay: PKD1 (Murine Kinase Domain) Enzyme Activity Assay (IMAP fluorescence polarisation); assay type: biochemical; conditions: 10 μM ATP, 60 minutes, room temperature
T1 construct: hexahistidine (pFastBac HTb leader) (N); made in house; host or cells: Sf9 insect cells, baculovirus (Bac-to-Bac HT, pFastBac HTb)
T1 sequence (Q62101 with tags, fused parts or gaps R683W): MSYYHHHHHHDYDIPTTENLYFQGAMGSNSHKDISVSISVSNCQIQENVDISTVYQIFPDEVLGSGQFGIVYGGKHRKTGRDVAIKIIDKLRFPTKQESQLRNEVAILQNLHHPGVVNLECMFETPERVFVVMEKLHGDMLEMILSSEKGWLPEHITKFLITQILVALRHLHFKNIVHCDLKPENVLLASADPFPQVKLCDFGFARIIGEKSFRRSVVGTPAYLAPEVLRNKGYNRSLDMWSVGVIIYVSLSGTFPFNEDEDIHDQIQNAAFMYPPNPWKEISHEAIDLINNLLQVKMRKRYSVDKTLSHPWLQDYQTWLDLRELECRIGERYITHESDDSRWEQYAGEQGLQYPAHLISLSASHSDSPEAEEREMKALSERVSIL

IC50 | Compound
< 1000 nM and 8.5 nM | COc1cc(-c2cc(-c3cccc(C(=O)NCCN(C)C)c3)cnc2N)ccc1O [Y-059, 3-[6-Amino-5-(4-hydroxy-3-methoxy-phenyl)-pyridin-3-yl]-N-(2-dimethylamino-ethyl)-benzamide]
< 1000 nM | COc1cc(-c2cncc(-c3cccc(C(=O)NCCN(C)C)c3)n2)ccc1O [X-007, N-(2-Dimethylamino-ethyl)-3-[6-(4-hydroxy-3-methoxy-phenyl)-pyrazin-2-yl]-benzamide]
< 1000 nM and 12 nM | COc1cc(-c2nc(-c3cccc(C(=O)NCCN(C)C)c3)cnc2N)ccc1O [X-017, 3-[5-Amino-6-(4-hydroxy-3-methoxy-phenyl)-pyrazin-2-yl]-N-(2-dimethylamino-ethyl)-benzamide]
